Test results published in US5624923A, “Tricyclic diazepine vasopressin antagonists and oxytocin antagonists” (priority 1995, dated 1997).
Where “and” joins values, the source holds several entries; their conditions need not be identical. Equal entries are not always repeated.

How the values were obtained:
[1] = target: T1, Rat Kidney Medullary V2 Receptors (Rattus norvegicus, UniProt Q00788); test: Binding Assay to Rat Kidney Medullary V2 Receptors; settings: rat kidney medulla membranes; read-out: V2 IC50
T1 construct: Medullary tissues from rat kidneys are dissected out; from tissue; host or cells: rat kidney medulla membranes
T1 sequence (Q00788 whole entry): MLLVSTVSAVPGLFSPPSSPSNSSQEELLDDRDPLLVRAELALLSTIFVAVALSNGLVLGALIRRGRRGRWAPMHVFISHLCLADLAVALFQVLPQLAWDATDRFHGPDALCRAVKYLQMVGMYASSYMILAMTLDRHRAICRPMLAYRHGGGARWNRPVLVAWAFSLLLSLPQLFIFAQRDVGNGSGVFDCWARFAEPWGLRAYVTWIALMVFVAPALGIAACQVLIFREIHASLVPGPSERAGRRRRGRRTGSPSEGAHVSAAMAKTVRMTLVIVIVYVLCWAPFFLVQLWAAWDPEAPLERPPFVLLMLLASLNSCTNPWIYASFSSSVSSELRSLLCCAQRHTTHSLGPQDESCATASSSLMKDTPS
Method in brief: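 Membranes were prepared from rat kidney medulla and stored in 50.0 mM Tris-HCl pH 7.4 with 0.2% BSA and 0.1 mM PMSF. Radioligand competition ran 120 min at bench temperature, with 1.0 μM unlabeled ligand defining nonspecific binding. Compounds were added in 50% DMSO; filtration, tritium scintillation counting, IC50 from competition analysis.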

Vasopressin V1 = Vasopressin V1 Antagonist Activity in Conscious Rats (vasopressin vasopressor response); format: in vivo, rat; design: Average Change: unit not given here; settings: SHR
Method in brief: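 Conscious rats are restrained supine, and under local 2% procaine a PE 10/20 cannula is passed through the ventral caudal tail artery into the lower abdominal aorta. The caudal vein is cannulated for intravenous dosing. Blood pressure is recorded with a Statham P23Db transducer, and vasopressin injections are repeated after compound dosing. Percent antagonism is calculated against the pre-drug vasopressor response taken as 100%.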

[2] = 3 mg/kg i.v., VAS 0.01 i.u./kg, 30 min
[3] = 3 mg/kg i.v., VAS 0.01 i.u./kg, 60 min
[4] = 3 mg/kg i.v., VAS 0.01 i.u./kg, 90 min
[5] = 3 mg/kg i.v., VAS 0.01 i.u./kg, 120 min
[6] = 3 mg/kg i.v., VAS 0.01 i.u./kg, 180 min
[7] = 3 mg/kg i.v., VAS 0.01 i.u./kg, 240 min
[8] = 3 mg/kg i.v., VAS 0.01 i.u./kg, 300 min
[9] = 3 mg/kg i.v., VAS 0.02 i.u./kg, 30 min
[10] = 3 mg/kg i.v., VAS 0.02 i.u./kg, 60 min
[11] = 3 mg/kg i.v., VAS 0.02 i.u./kg, 90 min
[12] = 3 mg/kg i.v., VAS 0.02 i.u./kg, 120 min
[13] = 3 mg/kg i.v., VAS 0.02 i.u./kg, 300 min
[14] = 10 mg/kg p.o., VAS 0.01 i.u./kg, 30 min
[15] = 10 mg/kg p.o., VAS 0.01 i.u./kg, 60 min
[16] = 10 mg/kg p.o., VAS 0.01 i.u./kg, 120 min
[17] = 10 mg/kg p.o., VAS 0.01 i.u./kg, 300 min
[18] = 10 mg/kg p.o., VAS 0.02 i.u./kg, 30 min
[19] = 10 mg/kg p.o., VAS 0.02 i.u./kg, 60 min
[20] = 10 mg/kg p.o., VAS 0.02 i.u./kg, 300 min
[21] = 30 mg/kg p.o., VAS 0.01 i.u./kg, 30 min
[22] = 30 mg/kg p.o., VAS 0.01 i.u./kg, 60 min
[23] = 30 mg/kg p.o., VAS 0.01 i.u./kg, 90 min
[24] = 30 mg/kg p.o., VAS 0.01 i.u./kg, 120 min
[25] = 30 mg/kg p.o., VAS 0.01 i.u./kg, 180 min
[26] = 30 mg/kg p.o., VAS 0.01 i.u./kg, 240 min
[27] = 30 mg/kg p.o., VAS 0.02 i.u./kg, 30 min
[28] = 30 mg/kg p.o., VAS 0.02 i.u./kg, 60 min
[29] = 30 mg/kg p.o., VAS 0.02 i.u./kg, 90 min
[30] = 30 mg/kg p.o., VAS 0.02 i.u./kg, 120 min
[31] = 30 mg/kg p.o., VAS 0.02 i.u./kg, 180 min
[32] = 30 mg/kg p.o., VAS 0.02 i.u./kg, 240 min

IC50 [1]: 4 nM
Compound: Cc1ccccc1C(=O)Nc1ccc(C(=O)N2Cc3cccn3Cc3ccccc32)cc1 [Example 3, 2-Methyl-N-[4-(5H-pyrrolo[2,1-c][1,4]-benzodiazepin-10(11H)-ylcarbonyl)phenyl]benzamide]
% Inhibition (Vasopressin V1; [2]): 70% and 69%
Average Change (Vasopressin V1; [2]): 15
% Inhibition (Vasopressin V1; [3]): 75% and 57%
Average Change (Vasopressin V1; [3]): 12.5 and 21
% Inhibition (Vasopressin V1; [4]): 65% and 76%
Average Change (Vasopressin V1; [4]): 17.5 and 12
% Inhibition (Vasopressin V1; [5]): 60% and 58%
Average Change (Vasopressin V1; [5]): 20 and 20.5
% Inhibition (Vasopressin V1; [6]): 40% and 57%
Average Change (Vasopressin V1; [6]): 30 and 21
% Inhibition (Vasopressin V1; [7]): 20% and 35%
Average Change (Vasopressin V1; [7]): 40 and 32
% Inhibition (Vasopressin V1; [8]): 61%
Average Change (Vasopressin V1; [8]): 19
% Inhibition (Vasopressin V1; [9]): 57%
Average Change (Vasopressin V1; [9]): 23.5 and 22
% Inhibition (Vasopressin V1; [10]): 68% and 44%
Average Change (Vasopressin V1; [10]): 17.5 and 29
% Inhibition (Vasopressin V1; [11]): 73% and 46%
Average Change (Vasopressin V1; [11]): 15 and 28
% Inhibition (Vasopressin V1; [12]): 41% and 64%
Average Change (Vasopressin V1; [12]): 32.5 and 18.5
Average Change (Vasopressin V1; 3 mg/kg i.v., VAS 0.02 i.u./kg, 180 min): 55 and 28.5
Average Change (Vasopressin V1; 3 mg/kg i.v., VAS 0.02 i.u./kg, 240 min): 52.5 and 27.5
% Inhibition (Vasopressin V1; [13]): 41%
Average Change (Vasopressin V1; [13]): 30.5
% Inhibition (Vasopressin V1; [14]): 78% and 71% and 73%
Average Change (Vasopressin V1; [14]): 12.5 and 10 and 11
% Inhibition (Vasopressin V1; [15]): 70% and 71%
Average Change (Vasopressin V1; [15]): 17.5 and 10.5 and 11.5
% Inhibition (Vasopressin V1; 10 mg/kg p.o., VAS 0.01 i.u./kg, 90 min): 81% and 70%
% Inhibition (Vasopressin V1; [16]): 74% and 59% and 69%
Average Change (Vasopressin V1; [16]): 15 and 14.5 and 12.5
% Inhibition (Vasopressin V1; 10 mg/kg p.o., VAS 0.01 i.u./kg, 180 min): 65% and 77% and 61%
% Inhibition (Vasopressin V1; 10 mg/kg p.o., VAS 0.01 i.u./kg, 240 min): 61% and 76% and 51%
% Inhibition (Vasopressin V1; [17]): 59%
Average Change (Vasopressin V1; [17]): 16.5
% Inhibition (Vasopressin V1; [18]): 65% and 66% and 70%
Average Change (Vasopressin V1; [18]): 17.5 and 18.5 and 16
% Inhibition (Vasopressin V1; [19]): 55% and 66% and 58%
Average Change (Vasopressin V1; [19]): 22.5 and 18.5
% Inhibition (Vasopressin V1; [20]): 56%
Average Change (Vasopressin V1; [20]): 24
% Inhibition (Vasopressin V1; [21]): 72%
Average Change (Vasopressin V1; [21]): 15
% Inhibition (Vasopressin V1; [22]): 57%
Average Change (Vasopressin V1; [22]): 22.5
% Inhibition (Vasopressin V1; [23]): 81%
Average Change (Vasopressin V1; [23]): 10
% Inhibition (Vasopressin V1; [24]): 81%
Average Change (Vasopressin V1; [24]): 10
% Inhibition (Vasopressin V1; [25]): 81%
Average Change (Vasopressin V1; [25]): 10
% Inhibition (Vasopressin V1; [26]): 91%
Average Change (Vasopressin V1; [26]): 5
% Inhibition (Vasopressin V1; [27]): 62%
Average Change (Vasopressin V1; [27]): 20
% Inhibition (Vasopressin V1; [28]): 57%
Average Change (Vasopressin V1; [28]): 22.5
% Inhibition (Vasopressin V1; [29]): 62%
Average Change (Vasopressin V1; [29]): 20
% Inhibition (Vasopressin V1; [30]): 76%
Average Change (Vasopressin V1; [30]): 12.5
% Inhibition (Vasopressin V1; [31]): 67%
Average Change (Vasopressin V1; [31]): 17.5
% Inhibition (Vasopressin V1; [32]): 81%
Average Change (Vasopressin V1; [32]): 10
